From patent publication US20250368628A1, “METHODS AND COMPOUNDS FOR MODULATING INHERITED GENETIC DISEASES” (Design Therapeutics, Inc., priority 2022, published 2025) come the findings set out here.

Structures are written as SMILES.

One experiment relates to Myotonic Dystrophy 1 affected patient fibroblasts (Coriel GM04602; 1600 CTG repeats). Briefly: DM1 foci reduction assay (EC50 assay; CAG10-Cy3 FISH, foci per nucleus). Format: cell-based. To be noted: Homo sapiens, Fibroblast; DM1 patient fibroblasts, 48 h treatment, foci per nucleus; read-out: DM1 EC50, 48 h. The method, boiled down:
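Foci per nucleus counted by 20× imaging of 4 areas per well, after overnight FISH with 5 nM CAG10-Cy3 and DAPI staining of fixed, permeabilized cells. DM1 fibroblasts (GM04602, 1600 CTG) were dosed 48 h at 37 °C, 8 points, 3-fold dilutions, 3 μM top concentration.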
As to `Cn1cc(NC(=O)c2nc(NC(=O)c3cc(NC(=O)CCNC(=O)c4nccn4C)cn3C)cn2C)cc1C(=O)NCCCC(=O)Nc1cn(C)c(C(=O)NCCC(=O)Nc2cc(C(=O)Nc3cn(C)c(C(=O)NCCC(=O)NCCCCN=[N+]=[N-])n3)n(C)c2)n1` [Compound B-84], the concentration giving a half-maximal response (EC50) – broadly, the concentration giving half of the maximal effect – is > 1000 nM.
As for `CCCNC(=O)CCNC(=O)c1nc(NC(=O)c2cc(NC(=O)CCNC(=O)c3nc(NC(=O)CCCNC(=O)c4cc(NC(=O)c5nc(NC(=O)CCNC(=O)c6cc(NC(=O)c7nccn7C)cn6C)cn5C)cn4CCCCCCNC(C)=O)cn3C)cn2C)cn1C` [Compound B-292], the EC50 was < 100 nM.
With `CCN(CC)CCCC[C@@H](NC(C)=O)C(=O)NCCNC(=O)CCNC(=O)c1nc(NC(=O)CCNC(=O)c2cc(NC(=O)c3nc(NC(=O)CCCNC(=O)c4cc(NC(=O)c5nc(NC(=O)CCNC(=O)c6cc(NC(C)c7nccn7C)cn6C)cn5C)cn4C)cn3C)cn2C)cn1C` (some centres unmarked) [Compound B-98], the EC50 is > 1000 nM.
As to `CCCNC(=O)CCNC(=O)c1nc(NC(=O)c2cc(NC(=O)CCNC(=O)c3nc(NC(=O)CCCNC(=O)c4cc(NC(=O)c5nc(NC(=O)CCNC(=O)c6cc(NC(=O)c7nccn7C)cn6CCCCCCN)cn5C)cn4C)cn3C)cn2C)cn1C` [Compound B-61], the EC50 was > 1000 nM.
Turning to `Cn1cc(NC(=O)c2nc(NC(=O)CCNC(=O)c3cc(NC(=O)c4nccn4C)cn3C)cn2C)cc1C(=O)NCCCC(=O)Nc1cn(C)c(C(=O)NCCC(=O)Nc2cc(C(=O)Nc3cn(C)c(C(=O)NCCC(=O)NCC#CC#CC4CCN(Cc5ccc(C(C)(C)C)cc5)CC4)n3)n(C)c2)n1` [Compound B-189], the EC50 is > 1000 nM.
On to `CCN(CC)CCCC[C@H](NC(=O)C(C)C)C(=O)NCCOCCOCCOCCOCCOCCNC(=O)CCNC(=O)c1nc(NC(=O)c2cc(NC(=O)CCNC(=O)c3nc(NC(=O)CCCNC(=O)c4cc(NC(=O)c5nc(NC(=O)CCNC(=O)c6cc(NC(=O)c7nccn7C)cn6C)cn5C)cn4C)cn3C)cn2C)cn1C` [Compound B-89], for which the EC50 was > 1000 nM.
Turning to `Cn1cc(NC(=O)c2nc(NC(=O)CCNC(=O)c3cc(NC(=O)c4nccn4C)cn3C)cn2C)cc1C(=O)NCCCC(=O)Nc1cn(C)c(C(=O)NCCC(=O)Nc2cc(C(=O)Nc3cn(C)c(C(=O)NCCOCCOCCOCCN4CCC(C#CC#CC5CCN(C(=O)OC(C)(C)C)CC5)CC4)n3)n(C)c2)n1` [Compound B-199], the EC50 lay in the range of 100 to 500 nM.
Still for that read-out and setting: as for `Cn1cc(NC(=O)c2nc(NC(=O)CCNC(=O)c3cc(NC(=O)c4nccn4C)cn3C)cn2C)cc1C(=O)NCCCC(=O)Nc1cn(C)c(C(=O)NCCC(=O)Nc2cc(C(=O)Nc3cn(C)c(C(=O)NCCC(=O)NCCOCCOCCOCCN4CCC(C#CC#CC5CCN(Cc6ccc(C(C)(C)C)cc6)CC5)CC4)n3)n(C)c2)n1` [Compound B-176], the figure is > 1000 nM; as for `CCCNC(=O)CCNC(=O)c1nc(NC(=O)c2cc(NC(=O)CCNC(=O)c3nc(NC(=O)CCCNC(=O)c4cc(NC(=O)c5nc(NC(=O)CCNC(=O)c6cc(NC(=O)c7nccn7C)cn6CCCCCCN=[N+]=[N-])cn5C)cn4C)cn3C)cn2C)cn1C` [Compound B-60], 100 to 500 nM; as for `Cn1cc(NC(=O)c2nc(NC(=O)CCNC(=O)c3cc(NC(=O)c4nccn4C)cn3C)cn2C)cc1C(=O)NCCCC(=O)Nc1cn(C)c(C(=O)NCCC(=O)Nc2cc(C(=O)Nc3cn(C)c(C(=O)NCCC(=O)NCCNc4ccc(C(C)(C)C)cc4)n3)n(C)c2)n1` [Compound B-181], > 1000 nM.
In the case of `Cn1cc(NC(=O)c2nc(NC(=O)CCNC(=O)c3cc(NC(=O)c4nccn4C)cn3C)cn2C)cc1C(=O)NCCCC(=O)Nc1cn(C)c(C(=O)NCCC(=O)Nc2cc(C(=O)Nc3cn(C)c(C(=O)N4CCC(N5CCNCC5)CC4)n3)n(C)c2)n1` [Compound B-106], the EC50 was > 1000 nM.
Still for that read-out and setting: to `Cn1cc(NC(=O)c2nc(NC(=O)CCNC(=O)c3cc(NC(=O)c4nccn4C)cn3C)cn2C)cc1C(=O)NCCCC(=O)Nc1cn(C)c(C(=O)NCCC(=O)Nc2cc(C(=O)Nc3cn(C)c(C(=O)NCCC(=O)NCCO)n3)n(C)c2)n1` [Compound B-51] belongs 100 to 500 nM; to `Cn1cc(NC(=O)c2nc(NC(=O)CCNC(=O)c3cc(NC(=O)c4nccn4C)cn3C)cn2C)cc1C(=O)NCCCC(=O)Nc1cn(C)c(C(=O)NCCC(=O)Nc2cc(C(=O)Nc3cn(C)c(C(=O)NCCC(=O)NC4CCCCC4)n3)n(C)c2)n1` [Compound B-53], 100 to 500 nM.
Regarding `Cn1cc(NC(=O)c2nc(NC(=O)CCNC(=O)c3cc(NC(=O)c4nccn4C)cn3C)cn2C)cc1C(=O)NCCCC(=O)Nc1cn(C)c(C(=O)NCCC(=O)Nc2cc(C(=O)Nc3cn(C)c(C(=O)NCCCCCCCNC(=O)c4cccc(C(=O)O)c4)n3)n(C)c2)n1` [Compound B-213], the EC50 was > 1000 nM.
`Cn1cc(NC(=O)c2nc(NC(=O)CCNC(=O)c3cc(NC(=O)c4nccn4C)cn3C)cn2C)cc1C(=O)NCCCC(=O)Nc1cn(C)c(C(=O)NCCC(=O)Nc2cc(C(=O)Nc3cn(C)c(C(=O)NCCC(=O)NCC#N)n3)n(C)c2)n1` [Compound B-112]: the EC50 lay within 500 to 1000 nM.
Same read-out and setting: as for `Cn1cc(NC(=O)c2nc(NC(=O)CCNC(=O)c3cc(NC(=O)c4nccn4C)cn3C)cn2C)cc1C(=O)NCCCC(=O)Nc1cn(C)c(C(=O)NCCC(=O)Nc2cc(C(=O)Nc3cn(C)c(C(=O)NCCC(=O)N4CCC(O)(C#CC5CCNCC5)CC4)n3)n(C)c2)n1` [Compound B-196], the figure is > 1000 nM.
Still for that read-out and setting: as for `CC(=O)NCCCCCCn1cc(NC(=O)c2nc(NC(=O)CCNC(=O)c3cc(NC(=O)c4nccn4C)cn3C)cn2C)cc1C(=O)NCCCC(=O)Nc1cn(C)c(C(=O)NCCC(=O)Nc2cc(C(=O)Nc3cn(C)c(C(=O)NCCC(=O)N4CCC(C#CC#CC5CCNCC5)CC4)n3)n(C)c2)n1` [Compound B-294], the figure is < 100 nM.
Same read-out and setting: to `CC(C)CCCN1CCC(C#CC#CCNC(=O)CCNC(=O)c2nc(NC(=O)c3cc(NC(=O)CCNC(=O)c4nc(NC(=O)CCCNC(=O)c5cc(NC(=O)c6nc(NC(=O)CCNC(=O)c7cc(NC(=O)c8nccn8C)cn7C)cn6C)cn5C)cn4C)cn3C)cn2C)CC1` [Compound B-191] belongs 100 to 500 nM; to `CCN(CC)CCCC[C@H](NC(=O)c1ccccc1)C(=O)NCCOCCOCCOCCOCCOCCNC(=O)c1nc(NC(=O)c2cc(NC(=O)CCNC(=O)c3nc(NC(=O)CCCNC(=O)c4cc(NC(=O)c5nc(NC(=O)CCNC(=O)c6cc(NC(=O)c7nccn7C)cn6C)cn5C)cn4C)cn3C)cn2C)cn1C` [Compound B-219], 500 to 1000 nM.
`Cn1cc(NC(=O)c2nc(NC(=O)CCNC(=O)c3cc(NC(=O)c4nccn4C)cn3C)cn2C)cc1C(=O)NCCCC(=O)Nc1cn(C)c(C(=O)NCCC(=O)Nc2cc(C(=O)Nc3cn(C)c(C(=O)NCCC(=O)N4CC(c5cnc(CN(CCCCO)CCCCO)[nH]5)C4)n3)n(C)c2)n1` [Compound B-70]: the EC50 fell in the range of 100 to 500 nM.
Still for that read-out and setting: as for `Cn1cc(NC(=O)c2nc(NC(=O)CCNC(=O)c3cc(NC(=O)c4nccn4C)cn3C)cn2C)cc1C(=O)NCCCC(=O)Nc1cn(C)c(C(=O)NCCC(=O)Nc2cc(C(=O)Nc3cn(C)c(C(=O)NCCC(=O)N[C@H]4CC[C@H](O)CC4)n3)n(C)c2)n1` [Compound B-54], the figure is 100 to 500 nM.
On the same count and under the same terms, to `CCN(CC)CCCC[C@H](NC(=O)c1ccncc1)C(=O)NCCOCCOCCOCCOCCOCCNC(=O)CCNC(=O)c1nc(NC(=O)c2cc(NC(=O)CCNC(=O)c3nc(NC(=O)CCCNC(=O)c4cc(NC(=O)c5nc(NC(=O)CCNC(=O)c6cc(NC(=O)c7nccn7C)cn6C)cn5C)cn4C)cn3C)cn2C)cn1C` [Compound B-93] belongs > 1000 nM.

Staying with this experiment, now noted: Homo sapiens, Fibroblast; DM1 patient fibroblasts, foci per nucleus, 48 h treatment; read-out: DM1 EC50, 48 h.
Regarding `CCCNC(=O)c1nc(NC(=O)c2cc(NC(=O)CCNC(=O)c3nc(NC(=O)CC4(CNC(=O)c5cc(NC(=O)c6nc(NC(=O)CCNC(=O)c7cc(NC(=O)c8nccn8CC(F)(F)F)cn7C)cn6C)cn5C)CNC4)cn3C)cn2C)cn1C` [Compound B-440], the EC50 was in the range of 100 to 500 nM.
